ChEMBL document CHEMBL2176906, “Diterpenoids isolated from Sideritis species protect astrocytes against oxidative stress via Nrf2” (J Nat Prod, 2012)
Calls of active or inactive are those of the source. The rule behind the calls is not given here.

Columns and labels:
U-373MG ATCC [1] = assay: Antioxidant activity in human U373MG cells assessed as reduction in H2O2-induced ROS production preincubated at 5 uM for 24 hrs before H2O2 challenge by DCFH-DA assay; type: functional, cell-based
[2] = Cytotoxicity against human U373MG cells assessed as LDH release at 1 to 10 uM after 24 hrs by LDH assay; type: cell-based; conditions: u-373mg atcc
[3] = biological target: T1, Nuclear factor erythroid 2-related factor 2 (Homo sapiens) (UniProt Q16236); assay: Induction of Nrf2-mediated SOD protein expression in H2O2-stimulated human U373MG cells preincubated at 5 uM for 24 hrs before H2O2 challenge by Western blot method; type: cell-based; conditions: U-373MG ATCC
T1 sequence (whole entry): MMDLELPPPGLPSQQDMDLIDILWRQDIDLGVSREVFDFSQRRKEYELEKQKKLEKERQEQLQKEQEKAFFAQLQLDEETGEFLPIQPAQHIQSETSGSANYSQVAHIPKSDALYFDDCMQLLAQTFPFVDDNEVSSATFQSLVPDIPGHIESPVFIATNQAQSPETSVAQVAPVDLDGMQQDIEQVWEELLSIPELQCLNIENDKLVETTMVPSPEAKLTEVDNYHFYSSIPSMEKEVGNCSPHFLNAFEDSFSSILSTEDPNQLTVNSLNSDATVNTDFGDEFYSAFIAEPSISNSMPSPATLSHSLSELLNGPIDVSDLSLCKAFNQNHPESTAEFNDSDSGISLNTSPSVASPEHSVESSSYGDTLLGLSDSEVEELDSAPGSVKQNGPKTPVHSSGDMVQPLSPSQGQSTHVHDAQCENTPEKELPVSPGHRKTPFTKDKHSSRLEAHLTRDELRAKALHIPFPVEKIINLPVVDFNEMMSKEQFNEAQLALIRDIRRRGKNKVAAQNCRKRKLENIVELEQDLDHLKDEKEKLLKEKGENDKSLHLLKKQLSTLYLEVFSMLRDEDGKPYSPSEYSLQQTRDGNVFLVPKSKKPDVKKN

U373 MG [4] = assay: Induction of HO-1 activity in human U373MG cells assessed as bilirubin production per mg protein preincubated at 5 uM for 24 hrs before H2O2 challenge by fluorimetric method (reference value: 19.6 +/-3.5 pmol/hr/mg protein); type: functional, U-373MG ATCC
U-373MG ATCC [5] = assay: Antioxidant activity in human U373MG cells assessed as reduction in H2O2-induced morphological changes preincubated at 10 uM for 24 hrs before H2O2 challenge by phase-contrast microscopy; type: functional, cell-based
[6] = biological target: T1, Nuclear factor erythroid 2-related factor 2 (Homo sapiens); assay: Induction of Nrf2-mediated glutathione reductase protein expression in H2O2-stimulated human U373MG cells preincubated at 10 uM for 24 hrs before H2O2 challenge by Western blot method; type: cell-based; conditions: U-373MG ATCC
[7] = biological target: T1, Nuclear factor erythroid 2-related factor 2 (Homo sapiens); assay: Induction of Nrf2-mediated HO-1 protein expression in H2O2-stimulated human U373MG cells preincubated at 10 uM for 24 hrs before H2O2 challenge by Western blot method; type: cell-based; conditions: U-373MG ATCC
U373 MG [8] = assay: Inhibition of H2O2-induced oxidative stress in human U373MG cells assessed as GSH level per mg protein at 5 uM by fluorimetric method (reference value: 17.1 +/- 1.7 nmol/mg protein); type: functional, U-373MG ATCC
U373 MG [9] = assay: Induction of total GPx activity in human U373MG cells assessed as […] per mg protein preincubated at 5 uM for 24 hrs before H2O2 challenge by fluorimetric method (reference value: 58.5 +/- 5.1 nmol/min/mg protein); type: functional, U-373MG ATCC
U-373MG ATCC [10] = assay: Antioxidant activity in human U373MG cells assessed as reduction in H2O2-induced morphological changes preincubated at 5 uM for 24 hrs before H2O2 challenge by phase-contrast microscopy; type: functional, cell-based
[11] = biological target: T1, Nuclear factor erythroid 2-related factor 2 (Homo sapiens); assay: Induction of Nrf2-mediated glutathione reductase protein expression in H2O2-stimulated human U373MG cells preincubated at 5 uM for 24 hrs before H2O2 challenge by Western blot method; type: cell-based; conditions: U-373MG ATCC
[12] = Cytotoxicity against human U373MG cells at > 50 uM after 24 hrs by MTT assay; type: cell-based; conditions: u-373mg atcc
U373 MG [13] = assay: Inhibition of AAPH-induced oxidative stress in human U373MG cells assessed as peroxy radical scavenging activity at 5 uM by ORAC assay; type: functional, cell-based; conditions: U-373MG ATCC
U373 MG [14] = assay: Induction of Nrf2 nuclear protein expression in H2O2-stimulated human U373MG cells preincubated at 10 uM for 24 hrs before H2O2 challenge by Western blot method; type: functional, cell-based; conditions: U-373MG ATCC
U-373MG ATCC [15] = assay: Antioxidant activity in human U373MG cells assessed as reduction in H2O2-induced ROS production preincubated at 10 uM for 24 hrs before H2O2 challenge by DCFH-DA assay; type: functional, cell-based
U-373MG ATCC [16] = assay: Antioxidant activity in human U373MG cells assessed as reduction in H2O2-induced cytotoxicity preincubated for 24 hrs before H2O2 challenge by LDH assay; type: functional, cell-based
U-373MG ATCC [17] = assay: Antioxidant activity in human U373MG cells assessed as reduction in H2O2-induced cytotoxicity preincubated for 24 hrs before H2O2 challenge by MTT assay; type: functional, cell-based
[18] = biological target: T1, Nuclear factor erythroid 2-related factor 2 (Homo sapiens); assay: Induction of Nrf2-mediated CAT protein expression in H2O2-stimulated human U373MG cells preincubated at 10 uM for 24 hrs before H2O2 challenge by Western blot method; type: cell-based; conditions: U-373MG ATCC
[19] = biological target: T1, Nuclear factor erythroid 2-related factor 2 (Homo sapiens); assay: Induction of Nrf2-mediated HO-1 protein expression in H2O2-stimulated human U373MG cells preincubated at 5 uM for 24 hrs before H2O2 challenge by Western blot method; type: cell-based; conditions: U-373MG ATCC
U-373MG ATCC [20] = assay: Antioxidant activity in human U373MG cells assessed as reduction in H2O2-induced cytotoxicity preincubated at 10 uM for 24 hrs before H2O2 challenge by MTT assay; type: functional, cell-based
U-373MG ATCC [21] = assay: Antioxidant activity in human U373MG cells assessed as reduction in H2O2-induced cytotoxicity preincubated at 5 uM for 24 hrs before H2O2 challenge by MTT assay; type: functional, cell-based
U-373MG ATCC [22] = assay: Antioxidant activity in human U373MG cells assessed as reduction in H2O2-induced cytotoxicity preincubated at 5 uM for 24 hrs before H2O2 challenge by LDH assay; type: functional, cell-based
[23] = Cytotoxicity against human U373MG cells at > 10 uM after 24 hrs by MTT assay; type: cell-based; conditions: u-373mg atcc
U-373MG ATCC [24] = assay: Antioxidant activity in human U373MG cells assessed as reduction in H2O2-induced cytotoxicity preincubated at 10 uM for 24 hrs before H2O2 challenge by LDH assay; type: functional, cell-based
[25] = Antioxidant activity in human U373MG cells assessed as reduction in H2O2-induced ROS production preincubated at 5 to 10 uM for 24 hrs before H2O2 challenge by DCFH-DA assay relative to untreated control; type: functional, U-373MG ATCC
[26] = Cytotoxicity against human U373MG cells at 1 to 100 uM after 24 hrs by MTT assay; type: cell-based; conditions: u-373mg atcc
[27] = Cytotoxicity against human U373MG cells at 1 to 100 uM after 24 hrs by LDH assay; type: cell-based; conditions: u-373mg atcc

Structure (SMILES) | Activity [2] [%] | Activity [3] | Activity (U373 MG [4]) [pmol/h] | Activity (U-373MG ATCC [5]) | Activity [6] | Activity [7] | Activity (U373 MG [8]) [nmol] | Activity (U373 MG [9]) [nmol/min] | Activity (U-373MG ATCC [10]) | Activity [11] | Activity (U373 MG [13]) | Activity (U373 MG [14]) | Activity (U-373MG ATCC [16]) | Activity (U-373MG ATCC [17]) | Activity [18] | Activity [19] | also measured
CC1(C)CCC[C@H]2C1=CC[C@H]1C[C@@](C)([C@@H](O)CO)C[C@@H](O)[C@@]12C [LAGASCATRIOL] | < 10 | Active | 28.6 | Active | Active | Active | 27.6 | 76.9 | Active | Active | inactive | Active | Dose-dependent effect | Dose-dependent effect | Active | Active | Activity (U-373MG ATCC [1]): Active; Activity [12]: Toxic; Activity (U-373MG ATCC [15]): Active
CC1(C)CCC[C@]2(C)[C@@H]1C[C@H](O)[C@@]13C=C[C@@](CO)(C1)[C@H](O)C[C@@H]23 [CONCHITRIOL] | < 10 | inactive | 15.9 | Active | – | – | 18 | 59.5 | Active | – | inactive | inactive | – | – | inactive | – | Activity (U-373MG ATCC [20]): Active; Activity (U-373MG ATCC [21]): Active; Activity (U-373MG ATCC [22]): Active; Activity [23]: Toxic; Activity (U-373MG ATCC [24]): Active
C=CC(=C)CC[C@H]1[C@]2(C)CCC[C@](C)(CO)[C@H]2[C@H](O)C[C@]1(C)O [ANDALUSOL] | < 10 | Active | 30.6 | Active | Active | Active | 36.3 | 89.1 | Active | Active | inactive | Active | Dose-dependent effect | Dose-dependent effect | Active | Active | Ratio [25]: 1.4; Activity [26]: Non-toxic; Activity [27]: Non-toxic
